Drawing on US7851474B2, “Dipiperazinyl ketones and related analogues” (Neurogen Corporation, priority 2005, dated 2010), this text covers Ki for 35 compounds.

For the first assay, the target named is T1, chimeric human H3 receptor (Homo sapiens, UniProt Q9Y5N1, E19D).
T1 construct: made in house; host or cells: Sf9 insect cells (baculovirus infection); P2 membrane preparation
T1 sequence (Q9Y5N1 with tags, fused parts or gaps E19D): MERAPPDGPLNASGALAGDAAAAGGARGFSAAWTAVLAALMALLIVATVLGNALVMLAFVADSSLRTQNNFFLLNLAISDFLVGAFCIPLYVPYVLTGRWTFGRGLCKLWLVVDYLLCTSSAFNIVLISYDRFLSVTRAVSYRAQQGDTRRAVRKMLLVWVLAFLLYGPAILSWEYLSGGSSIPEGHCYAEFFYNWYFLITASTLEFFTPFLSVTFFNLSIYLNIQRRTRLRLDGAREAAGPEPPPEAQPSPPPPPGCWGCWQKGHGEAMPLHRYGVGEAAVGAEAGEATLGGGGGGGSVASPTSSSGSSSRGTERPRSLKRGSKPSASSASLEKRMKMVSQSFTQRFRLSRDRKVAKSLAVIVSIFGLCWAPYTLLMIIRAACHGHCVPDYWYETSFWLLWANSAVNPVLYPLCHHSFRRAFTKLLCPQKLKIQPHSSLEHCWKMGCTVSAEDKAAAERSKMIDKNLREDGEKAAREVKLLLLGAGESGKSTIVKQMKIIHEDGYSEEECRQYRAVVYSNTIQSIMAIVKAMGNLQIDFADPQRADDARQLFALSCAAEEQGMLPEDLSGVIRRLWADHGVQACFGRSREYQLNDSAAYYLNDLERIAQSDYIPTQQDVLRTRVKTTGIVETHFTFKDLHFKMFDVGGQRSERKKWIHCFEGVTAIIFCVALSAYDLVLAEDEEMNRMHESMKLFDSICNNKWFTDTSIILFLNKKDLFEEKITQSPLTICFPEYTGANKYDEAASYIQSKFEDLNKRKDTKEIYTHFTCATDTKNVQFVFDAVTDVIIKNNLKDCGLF
The experiment in a line: Chimeric human H3 receptor GTP binding assay (agonist-stimulated GTP-gamma35S binding, Example 7). It counts as biochemical.
Conditions: not given
Put shortly: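 IC50 values come from non-linear regression of dose-response curves of filter-bound GTP-gamma^35S, counted by scintillation. Membranes were from infected Sf9 cells carrying receptor plus G-protein subunits, 35 μg/tube, with 10 μM GDP present.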
Regarding `CC(C)N1CCN(C(=O)CN2CCN(c3ccccc3)CC2)CC1` [Compound 847, 1-isopropyl-4-[(4-phenylpiperazin-1-yl)acetyl]piperazine], the Ki is below 1 µM.

The assay is the same for the next values; noted with them: "*" in Ki of Table II; assay of Example 7; read-out: Ki.
On to `CC(C)N1CCN(C(=O)CN2CCC(N(C)C)C2)CC1` (centres unmarked) [Compound 446, 1-[2-(4-isopropylpiperazin-1-yl)-2-oxoethyl]-N,N-dimethylpyrrolidin-3-amine], for which the Ki was below 1 µM.
Regarding `COc1ccc(OC)c(CC(=O)N2CCN(CC(=O)N3CCN(C4CCC4)CC3)CC2)c1` [Compound 509, 1-cyclobutyl-4-({4-[(2,5-dimethoxyphenyl)acetyl]piperazin-1-yl}acetyl)piperazine], the Ki was below 1 µM.
`O=C(N1CCN(C2CCCC2)CC1)N1CCC2(CC1)C(=O)N(Cc1ccccc1)c1ccccc12` [Compound 489, 1-benzyl-1′-[(4-cyclopentylpiperazin-1-yl)carbonyl]spiro[indole-3,4′-piperidin]-2(1H)-one]: the Ki is below 1 µM.
Regarding `CC(=O)N1CCN(CC(=O)N2CCN(C3CCC3)CC2)CC1` [Compound 483, 1-acetyl-4-[2-(4-cyclobutylpiperazin-1-yl)-2-oxoethyl]piperazine], the Ki is below 1 µM.
As to `Cc1ccccc1OC(C)C(=O)N1CCN(CC(=O)N2CCN(C3CCC3)CC2)CC1` (centres unmarked) [Compound 573, 1-cyclobutyl-4-({4-[2-(2-methylphenoxy)propanoyl]piperazin-1-yl}acetyl)piperazine], the Ki is below 1 µM.

Still in this assay, the particulars now being: Table II "Ki", symbol "*": Ki in the assay of Example 7; read-out: Ki.
Turning to `O=C(CN1CCN(c2cnc(-c3ccccc3Cl)cn2)CC1)N1CCN(C2CCC2)CC1` [Compound 898, 2-(2-chlorophenyl)-5-{4-[2-(4-cyclobutylpiperazin-1-yl)-2-oxoethyl]piperazin-1-yl}pyrazine], the Ki is below 1 µM.
On to `Cc1cc(C)cc(-c2cnc(N3CCN(CC(=O)N4CCN(C5CCC5)CC4)CC3)cn2)c1` [Compound 929, 2-{4-[2-(4-cyclobutylpiperazin-1-yl)-2-oxoethyl]piperazin-1-yl}-5-(3,5-dimethylphenyl)pyrazine], for which the Ki is below 1 µM.
Consider `O=C(CN1CCN(c2cc(Cl)cc(Cl)c2)CC1)N1CCN(C2CCCC2)CC1` [Compound 838, 1-cyclopentyl-4-{[4-(3,5-dichlorophenyl)piperazin-1-yl]acetyl}piperazine], for which the Ki was below 1 µM.
On to `O=C(CN1CCN(c2cccc(F)c2)CC1)N1CCN(C2CCCCC2)CC1` [Compound 819, 1-cyclohexyl-4-{[4-(3-fluorophenyl)piperazin-1-yl]acetyl}piperazine], for which the Ki was below 1 µM.

Staying with this assay, now noted: Table II, "*" in Ki; assay of Example 7; read-out: Ki.
Turning to `O=C(CN1CCN(c2ccc(F)c(C(F)(F)F)c2)CC1)N1CCN(C2CCC2)CC1` [Compound 607, 1-cyclobutyl-4-({4-[4-fluoro-3-(trifluoromethyl)phenyl]piperazin-1-yl}acetyl)piperazine], the Ki is below 1 µM.
In the case of `O=C(CN1CCN(c2ccc(-c3ccc(F)cc3F)cc2)CC1)N1CCN(C2CCC2)CC1` [Compound 676, 1-cyclobutyl-4-{[4-(2′,4′-difluorobiphenyl-4-yl)piperazin-1-yl]acetyl}piperazine], the Ki was below 1 µM.
With `O=C(CN1CCN(c2cccc(C(=O)N3CCCC3)c2)CC1)N1CCN(C2CCC2)CC1` [Compound 586, 1-cyclobutyl-4-({4-[3-(pyrrolidin-1-ylcarbonyl)phenyl]piperazin-1-yl}acetyl)piperazine], the Ki was below 1 µM.
Take `CC1CC(C)CN(C(=O)c2cccc(N3CCN(CC(=O)N4CCN(C5CCC5)CC4)CC3)c2)C1` (centres unmarked) [Compound 641, 1-cyclobutyl-4-[(4-{3-[(3,5-dimethylpiperidin-1-yl)carbonyl]phenyl}piperazin-1-yl)acetyl]piperzaine]: the Ki was below 1 µM.
For the compound `Cc1nc(-c2ccc(N3CCN(CC(=O)N4CCN(C5CCC5)CC4)CC3)cc2)no1` [Compound 595, 1-cyclobutyl-4-({4-[4-(5-methyl-1,2,4-oxadiazol-3-yl)phenyl]piperazin-1-yl}acetyl)piperazine], the Ki is below 1 µM.
In the case of `Cc1cc(C)c(-c2ccc(N3CCN(CC(=O)N4CCN(C5CCC5)CC4)CC3)cc2)c(C)c1` [Compound 673, 1-cyclobutyl-4-{[4-(2′,4′,6′-trimethylbiphenyl-4-yl)piperazin-1-yl]acetyl}piperazine], the Ki was below 1 µM.

Staying with this assay, now noted: Table II; assay of Example 7; "*" in Ki; read-out: Ki.
With `Cc1ccc(F)c(-c2ccc(N3CCN(CC(=O)N4CCN(C5CCC5)CC4)CC3)nn2)c1` [Compound 1008, 3-{4-[2-(4-cyclobutylpiperazin-1-yl)-2-oxoethyl]piperazin-1-yl}-6-(2-fluoro-5-methylphenyl)pyridazine], the Ki was below 1 µM.
With `CCOc1ccccc1-c1ccc(N2CCN(CC(=O)N3CCN(C4CCC4)CC3)CC2)nn1` [Compound 1043, 3-{4-[2-(4-cyclobutylpiperazin-1-yl)-2-oxoethyl]piperazin-1-yl}-6-(2-ethoxyphenyl)pyridazine], the Ki was below 1 µM.
On to `O=C(CN1C=CC2(CC1)c1ccccc1C(=O)N2Cc1ccccc1)N1CCN(C2CCC2)CC1` (centres unmarked) [Compound 980, 2-benzyl-1′-[2-(4-cyclobutylpiperazin-1-yl)-2-oxoethyl]-2′,′3-dihydro-1′H-spiro[isoindole-1,4′-pyridin]-3(2H)-one], for which the Ki was below 1 µM.
With `CCN(CC)C(=O)c1ccc(N2CCN(CC(=O)N3CCN(C4CCC4)CC3)CC2)cc1` [Compound 1125, 4-{4-[2-(4-cyclobutylpiperazin-1-yl)-2-oxoethyl]piperazin-1-yl}-N,N-diethylbenzamide], the Ki is below 1 µM.
On to `O=C(CN1CCN(c2ccc(-c3ccc4c(c3)OCCO4)nn2)CC1)N1CCN(C2CCC2)CC1` [Compound 1035, 3-{4-[2-(4-cyclobutylpiperazin-1-yl)-2-oxoethyl]piperazin-1-yl}-6-(2,3-dihydro-1,4-benzodioxin-6-yl)pyridazine], for which the Ki is below 1 µM.
With `O=C(CN1CCN(c2ccc(-c3ccc(Cl)cc3)nn2)CC1)N1CCN(C2CCC2)CC1` [Compound 991, 3-(4-chlorophenyl)-6-{4-[2-(4-cyclobutylpiperazin-1-yl)-2-oxoethyl]piperazin-1-yl}pyridazine], the Ki is below 1 µM.
With `COc1ccc(N2CCN(CC(=O)N3CCN(C4CCCCC4)CC3)CC2C)cc1` (centres unmarked) [Compound 1106, 4-[2-(4-cyclohexylpiperazin-1-yl)-2-oxoethyl]-1-(4-methoxyphenyl)-2-methylpiperazine], the inhibition constant Ki was below 1 µM.
`CC(C)(C)CNC(=O)c1cccc(N2CCN(CC(=O)N3CCN(C4CCC4)CC3)CC2)c1` [Compound 1085, 3-{4-[2-(4-cyclobutylpiperazin-1-yl)-2-oxoethyl]piperazin-1-yl}-N-(2,2-dimethylpropyl) benzamide]: the Ki is below 1 µM.

Staying with this assay, now noted: assay of Example 7; "*" in Ki of Table II; read-out: Ki.
Turning to `CC(C)N(C)C(=O)c1ccc(N2CCN(CC(=O)N3CCN(C4CCC4)CC3)CC2)nc1` [Compound 1169, 6-{4-[2-(4-cyclobutylpiperazin-1-yl)-2-oxoethyl]piperazin-1-yl}-N-isopropyl-N-methylnicotinamide], the Ki was below 1 µM.
As to `O=C(CC1CCCC1)NC1CCN(CC(=O)N2CCN(C3CCC3)CC2)C1` (centres unmarked) [Compound 1248, N-{1-[2-(4-cyclobutylpiperazin-1-yl)-2-oxoethyl]pyrrolidin-3-yl}-2-cyclopentylacetamide], the Ki is below 1 µM.
The same measure, in the same setting: the figure for `O=C(NC1CCCCCC1)c1ccc(N2CCN(CC(=O)N3CCN(C4CCC4)CC3)CC2)nc1` [Compound 1185, 6-{4-[2-(4-cyclobutylpiperazin-1-yl)-2-oxoethyl]piperazin-1-yl}-N-cycloheptylnicotinamide] is below 1 µM; for `CC(C)CC(=O)NC1CCN(CC(=O)N2CCN(C3CCC3)CC2)C1` (centres unmarked) [Compound 1246, N-{1-[2-(4-cyclobutylpiperazin-1-yl)-2-oxoethyl]pyrrolidin-3-yl}-3-methylbutanamide] it is below 1 µM; for `O=C1OCc2cc(N3CCN(CC(=O)N4CCN(C5CCCC5)CC4)CC3)ccc21` [Compound 1159, 5-{4-[2-(4-cyclopentylpiperazin-1-yl)-2-oxoethyl]piperazin-1-yl}-2-benzofuran-1(3H)-one] it is below 1 µM.
The same measure, in the same setting: as for `CC(C)(C)c1ccc(C(=O)NC2CCN(CC(=O)N3CCN(C4CCC4)CC3)C2)cc1` (centres unmarked) [Compound 1152, 4-tert-butyl-N-{1-[2-(4-cyclobutylpiperazin-1-yl)-2-oxoethyl]pyrrolidin-3-yl}benzamide], the figure is below 1 µM.

The same assay, now with this note: assay of Example 7; symbol * in column headed Ki of Table II; read-out: Ki.
Regarding `COc1cc(C(C)=O)ccc1N1CCN(CC(=O)N2CCN(C3CCC3)CC2)CC1` [Compound 319, 1-(4-{4-[2-(4-cyclobutylpiperazin-1-yl)-2-oxoethyl]piperazin-1-yl}-3-methoxyphenyl)ethanone], the Ki was below 1 µM.
In the case of `O=C(CN1CCN(c2cccc(C(=O)N3CC[C@@H]4CCCC[C@@H]4C3)c2)CC1)N1CCN(C2CCC2)CC1` [Compound 254, (4aS,8aS)-2-(3-{4-[2-(4-cyclobutylpiperazin-1-yl)-2-oxoethyl]piperazin-1-yl}benzoyl) decahydroisoquinoline], the Ki was below 1 µM.
As to `O=C(c1ccccc1)c1ccc(N2CCN(CC(=O)N3CCN(C4CCC4)CC3)CC2)cc1` [Compound 248, (4-{4-[2-(4-cyclobutylpiperazin-1-yl)-2-oxoethyl]piperazin-1-yl}phenyl)(phenyl)methanone], the Ki was below 1 µM.
For the compound `O=C(CN1CCN(c2ccc(-c3ccc(Cl)c(F)c3)cc2)CC1)N1CCN(C2CCC2)CC1` [Compound 343, 1-(4′-chloro-3′-fluorobiphenyl-4-yl)-4-[2-(4-cyclobutylpiperazin-1-yl)-2-oxoethyl]piperazine], the inhibition constant Ki is below 1 µM.
For the compound `O=C(CN1CCN(c2ccc(C(=O)N3CC[C@H]4CCCC[C@@H]4C3)cc2)CC1)N1CCN(C2CCC2)CC1` [Compound 253, (4aR,8aS)-2-(4-{4-[2-(4-cyclobutylpiperazin-1-yl)-2-oxoethyl]piperazin-1-yl}benzoyl) decahydroisoquinoline], the Ki was below 1 µM.

A word on the Ki: it is a dissociation constant, usually derived from enzyme kinetics or from competition with a known ligand.
